Reference: PMC5011932, “Comparative pharmacokinetics and pharmacodynamics of intravenous artelinate versus artesunate in uncomplicated Plasmodium coatneyi-infected rhesus monkey model” (Malaria Journal, 2016)
Where “and” joins values, the source holds several entries; their conditions need not be identical. Identical values can stand only once.

Experiments:
Plasmodium coatneyi = assay: In vivo pharmacodynamics (parasite clearance) in uncomplicated P. coatneyi-infected splenectomized rhesus monkey model
Procedure: Twenty-two adult colony-born, Indian-origin rhesus macaques (Macaca mulatta) naïve monkeys were splenectomized and recovered well more than 1 month prior to entering the study. […] Twenty-two animals were randomized to two experiments of 11 monkeys. […] The control monkeys received intramuscular quinine treatment and the experimental animals received intravenous artemisinin candidates.
Based on our previous model validation, blood smears were performed to detect malaria parasites starting prior to inoculation on day 0 and continued daily (0700–0800 h). The monkeys were physically restrained in the squeeze cage restraint apparatus and approximately 0.1–0.2 ml whole blood was collected from each monkey by lancet puncture of the lateral auricular vein. Thick and thin smears were made on the same microscope glass slide and subsequently fixed in methanol and stained with Giemsa. When the smears were positive, white blood cell count (WBC) and/or red blood cell count (RBC) were also performed using automated haematology analyzer Sysmex K800 to calculate parasite density. Haematocrits were checked as needed. At study days 6–12, additional blood samples were obtained from all animals in the afternoon (1500–1600 h) to monitor parasitaemia levels. Daily blood smears were continued until two consecutive days with negative smears. Then the smear monitoring schedule was reduced to two times weekly for 2 weeks and then weekly for 6 weeks after completion of the last treatment.
Blood smear staining and parasitaemia determination took about 2 h. […] The control monkey received quinine treatment and the ten experimental animals received intravenous artemisinin derivative candidate.
After a week wash-out and recovery period, P. coatneyi (1 mL of >50,000 parasitized RBCs per microlitre or 5 × 10^6 RBC with a 1 % parasitaemia) were inoculated from a donor monkey into all the monkeys. The treatment was initiated at day 6 after inoculation at a parasitaemia ≥3 % or >200,000 parasites μL^−1 when the cohort of animals was minimally symptomatic. Drugs were given for 3 days with a loading dose initially followed by ½ of the first dose on the 2nd and 3rd days.
Blood smear were collected once daily in the morning. Once positive parasitaemia was observed and reached 2000 parasites μL^−1, blood smears were collected twice, in the morning and afternoon. Blood for slides preparation were collected from ear for thick and thin smear preparation. Blood films on glass slides were air dried, fixed with 100 % methanol, stained with Giemsa, and read under ×100 magnification oil emersion for parasite determination.
First, a thick smear was performed for parasite detection by reading the slides at least 50 fields under ×100 magnification oil emersion.

P. falciparum clone (W2) = assay: Ex vivo Plasmodium falciparum-based bioassay (BA) of rhesus plasma, effect kinetics (ePD) as DHA equivalents; assay type: cell-based
Procedure: Blood was collected for pharmacokinetic/pharmacodynamics (PK/PD) analysis after the first dose only due to rapid clearance of artemisinin derivatives. Heparinized blood was collected at 0, 5, 20, 40 min, 1, 3, and 6 h post-dose and plasma samples were separated within 2 h by centrifugation (1500g, 10 min). Aliquots of samples were made for simultaneous measurement by HPLC [16] and bioassay [14], and stored at −80 °C until analysis.
The plasma anti-malarial activities of the artemisinin derivatives were measured using a previously published method [14]. […] After centrifugation, the supernatant (100 µL) was transferred to a 96-well flat bottom plate. Twofold serial dilutions were then made using heat inactivated pooled control serum (human:rhesus = 1:1). A suspension of malaria (W2 clone) infected erythrocytes was added to each well. The microtitre plate was placed into a gas-tight plexiglass chamber, flushed with a gas mixture of 90 % CO2, 5 % O2, and 5 % N2, and placed into an incubator (37 °C). Following 24 h incubation, the plate was removed from the chamber and pulsed with [^3H]-hypoxanthine solution to each well and incubated for another 18–20 h before harvesting. The incorporation of [^3H]-hypoxanthine by the parasites in each well was determined by counting in a scintillation counter.
A dose–response curve for each plasma sample was constructed by plotting [^3H]-hypoxanthine uptake on the Y-axis against the corresponding dilution factor on the X-axis after logarithmic transformation. The dilution factor value that inhibits parasite growth by 50 % (DF50) of each plasma sample was determined.

Plasmodium falciparum = system: Plasmodium falciparum; design: method as in Newton, 2000 [22]; conditions: Human, 2 mg kg^−1 IV AS, ref Newton, 2000 [22], cited from earlier work
[1] = rhesus monkey, in vivo
Procedure: (§1) These doses were chosen as the minimal effective doses (from previous model development and validation studies, unpublished data) and blood was collected for pharmacokinetic analysis. After a week wash-out and recovery period, P. coatneyi (1 mL of >50,000 parasitized RBCs per microlitre or 5 × 10^6 RBC with a 1 % parasitaemia) were inoculated from a donor monkey into all the monkeys. The treatment was initiated at day 6 after inoculation at a parasitaemia ≥3 % or >200,000 parasites μL^−1 when the cohort of animals was minimally symptomatic. Drugs were given for 3 days with a loading dose initially followed by ½ of the first dose on the 2nd and 3rd days.
(§2) Blood was collected for pharmacokinetic/pharmacodynamics (PK/PD) analysis after the first dose only due to rapid clearance of artemisinin derivatives. Heparinized blood was collected at 0, 5, 20, 40 min, 1, 3, and 6 h post-dose and plasma samples were separated within 2 h by centrifugation (1500g, 10 min). Aliquots of samples were made for simultaneous measurement by HPLC [16] and bioassay [14], and stored at −80 °C until analysis. All glassware was silanized before use with a 0.5 % aqueous solution (v/v) of Pierce Aquasil (Rockford, IL, USA) according to the manufacturer’s recommended procedure. Solid-phase extraction was performed on C-18 elution cartridge (3.0 ml, J.T. Baker Co.) using a VAC ELUTE SPS24 sample processing station (Analytichem International, Harbour City, CA, USA). The cartridge was preconditioned by sequential washing with 2.5 ml acetonitrile, 2.5 ml methanol and 2.5 ml water. One ml of distilled water was added to the cartridge before adding plasma sample (0.5 ml). Then, the cartridge was washed with 2.5 ml distilled water, 2.5 ml of 0.05 % H3PO4 (pH 4.5) and 2.5 ml of 20 % acetonitrile and completely dried by closing the vacuum for 15 min. The analytes were collected by eluting with 0.5 ml methanol three times and then with 0.5 ml 90:10 n-butyl chloride: ethyl acetate twice. The organic phases were pooled. The combined organic phases were then evaporated to dryness under a stream of nitrogen at room temperature. Extraction residues were reconstituted with 50:50 ethanol: water (0.3 ml), at least 16 h before injection. The injection volume was 100 µl for all samples.
(§3) The plasma concentration of parent drugs, AL and AS, and their primary metabolites, DHA and 2-hydroxyartelinate (OHAL) respectively, were measured by HPLC with electrochemical detection in reductive mode (HPLC-ECD) [16], which was the only method for artemisinin compounds then (Additional files 1 and 2).
(§4) HPLC with reductive electrochemical detection was performed using a model BAS 200B liquid chromatography (Bioanalytical Systems, Inc., West Lafayette, Indiana, USA). A Nova-Pak® C18 (3.9 × 150 mm, Waters Corporation, Milford, MA, USA) was used with 40 % acetonitrile in sodium acetate buffer (pH 3.6) as mobile phase. Detection was performed using a thin dual-layer glassy carbon electrode run in parallel mode at a potential of −1.0 V versus Ag/AgCl. The system was operated at the following temperatures: mobile phase 35 °C, column and detector oven 30 °C, cell 31 °C with the flow rate of 1.5 mL min^−1. Artemisinin (ART) was used as an internal standard. Samples were injected via Gilson model 231 XL sampling injector equipped with a 100 µL loop, a Gilson model 401 dilutor/pipettor, a sampler controller keypad (Gilson Medical Electronics, Middleton, WI, USA), and a Valco electrically actuated switching valve (Valco Instrument Co. Inc) was used. This system automatically deoxygenated and injected sample, which permits the high sample throughput associated with automated injection. Data were acquired and analysed using a Millennium^32 Chromatography Manager (Waters Corporation, Milford, MA, USA).

[2] = design: method as in PMID 2631113; conditions: rats, 1 h following IV administration; cited from earlier work
in vivo = conditions: rhesus monkey; for AUC(0-t) / AUC(0-inf) / clearance / Cmax / half-life: iv, 8 mg/kg; for clearance: Cl
Procedure: as §1, §2, §3, §4

[3] = DHA equivalents, infected rhesus

SMILES: C[C@H]1[C@H](OC(=O)CCC(=O)O)O[C@@H]2O[C@@]3(C)CC[C@H]4[C@H](C)CC[C@@H]1[C@@]24OO3 [IV AS, Artesunic acid]
- Parasite/µL, mean (Plasmodium coatneyi; 0.29 day post-dose): 32,080 Parasite/µL
- Parasite Reduction (Plasmodium coatneyi; 0.29 day post-dose, IV AS experiment (mean; IM QN = its control monkey)): 88.6%
- Parasite/µL, mean (Plasmodium coatneyi; 1.00 day post-dose): 63,163 Parasite/µL
- Parasite Reduction (Plasmodium coatneyi; 1.00 day post-dose, IV AS experiment): 81.1%
- Parasite/µL, mean (Plasmodium coatneyi; 1.29 day post-dose): 9,364 Parasite/µL
- Parasite Reduction (Plasmodium coatneyi; 1.29 day post-dose, IV AS experiment): 97.1%
- Parasite/µL, mean (Plasmodium coatneyi; 2.00 day post-dose): 1,383 Parasite/µL
- Parasite Reduction (Plasmodium coatneyi; 2.00 day post-dose, IV AS experiment): 99.4%
- Parasite/µL, mean (Plasmodium coatneyi; 2.29 day post-dose): 345 Parasite/µL
- Parasite Reduction (Plasmodium coatneyi; 2.29 day post-dose, IV AS experiment): 99.8%
- Parasite/µL, mean (Plasmodium coatneyi; 3.00 day post-dose): 96 Parasite/µL
- Parasite Reduction (Plasmodium coatneyi; 3.00 day post-dose, IV AS experiment): 100.0%
- Parasite Reduction (Plasmodium coatneyi; 3.29 day post-dose, IV AS experiment): 99.9%
- Parasite/µL, mean (Plasmodium coatneyi; 4.00 day post-dose): 66 Parasite/µL
- Parasite Reduction (Plasmodium coatneyi; 4.00 day post-dose, IV AS experiment): 100.0%
- Parasite/µL, mean (Plasmodium coatneyi; 4.29 day post-dose): 87 Parasite/µL
- Parasite Reduction (Plasmodium coatneyi; 4.29 day post-dose, IV AS experiment): 100.0%
- Parasite/µL, mean (Plasmodium coatneyi; 5.00 day post-dose): 60 Parasite/µL
- Parasite Reduction (Plasmodium coatneyi; 5.00 day post-dose, IV AS experiment): 100.0%
- Parasite/µL, mean (Plasmodium coatneyi; 5.29 day post-dose): 31 Parasite/µL
- Parasite Reduction (Plasmodium coatneyi; 5.29 day post-dose, IV AS experiment): 100.0%
- Parasite/µL, mean (Plasmodium coatneyi; 6.00 day post-dose): 13 Parasite/µL
- Parasite Reduction (Plasmodium coatneyi; 6.00 day post-dose, IV AS experiment): 100.0%
- Parasite/µL, mean (Plasmodium coatneyi; 6.29 day post-dose): 23 Parasite/µL
- Parasite Reduction (Plasmodium coatneyi; 6.29 day post-dose, IV AS experiment): 100.0%
- Parasite/µL, mean (Plasmodium coatneyi; 7.00 day post-dose): 15 Parasite/µL
- Parasite Reduction (Plasmodium coatneyi; 7.00 day post-dose, IV AS experiment): 100.0%
- Parasite/µL, mean (Plasmodium coatneyi; 8.00 day post-dose): 4 Parasite/µL
- Parasite Reduction (Plasmodium coatneyi; 8.00 day post-dose, IV AS experiment): 100.0%
- Parasite/µL, mean (Plasmodium coatneyi; 9.00 day post-dose): 2 Parasite/µL
- Parasite Reduction (Plasmodium coatneyi; 9.00 day post-dose, IV AS experiment): 100.0%
- Parasite/µL, mean (Plasmodium coatneyi; 10.00 day post-dose): 0 Parasite/µL
- Parasite Reduction (Plasmodium coatneyi; 10.00 day post-dose, IV AS experiment): 100.0%
- PCT of individual animals (Plasmodium coatneyi; IV AL: the only two determinable, IV AS: the two most rapid): 4.0 days and 5.0 days
- Recrudescence, median (range, n) (Plasmodium coatneyi; in vivo): 13 (9–19, 10) days
- R, Day (recrudescence day), mean (Plasmodium coatneyi; n 2 IV AL, n 10 IV AS): 13 days
- PC50 (Plasmodium coatneyi; range in evaluable animals (4 of 8 IV AL, 3 of 10 IV AS)): 0.32 to 5.88 h
- Median PCT of the remaining eight monkeys (Plasmodium coatneyi; without the two most rapid): 8.0 days
- Antimalarial activity expressed as DHA equi., mean (P. falciparum clone (W2); 0.08 h, healthy rhesus): 17.94 µmol/L
- Antimalarial activity expressed as DHA equi., mean (P. falciparum clone (W2); 0.08 h, infected rhesus): 22.45 µmol/L
- Antimalarial activity expressed as DHA equi., mean (P. falciparum clone (W2); 0.33 h, healthy rhesus): 5.77 µmol/L
- Antimalarial activity expressed as DHA equi., mean (P. falciparum clone (W2); 0.33 h, infected rhesus): 4.28 µmol/L
- Antimalarial activity expressed as DHA equi., mean (P. falciparum clone (W2); 0.67 h, healthy rhesus): 3.16 µmol/L
- Antimalarial activity expressed as DHA equi., mean (P. falciparum clone (W2); 0.67 h, infected rhesus): 3.19 µmol/L
- Antimalarial activity expressed as DHA equi., mean (P. falciparum clone (W2); 1.0 h, healthy rhesus): 1.75 µmol/L
- Antimalarial activity expressed as DHA equi., mean (P. falciparum clone (W2); 1.0 h, infected rhesus): 1.58 µmol/L
- Antimalarial activity expressed as DHA equi., mean (P. falciparum clone (W2); 3.0 h, healthy rhesus): 0.22 µmol/L
- Antimalarial activity expressed as DHA equi., mean (P. falciparum clone (W2); 3.0 h, infected rhesus): 0.12 µmol/L
- Antimalarial activity expressed as DHA equi., mean (P. falciparum clone (W2); 6.0 h, healthy rhesus): 0 µmol/L
- Antimalarial activity expressed as DHA equi., mean (P. falciparum clone (W2); 6.0 h, infected rhesus): 0 µmol/L
- AUC0–20, ePD (P. falciparum clone (W2); [3]): 242 µM·min
- AUC0–∞, ePD (P. falciparum clone (W2); [3]): 485 µM·min
- Bioactivity %AUC20 (P. falciparum clone (W2); mean, healthy rhesus): 48.3%
- Bioactivity Cl (P. falciparum clone (W2); mean, healthy rhesus): 3.07 L hr^-1 kg ^-1
- Bioactivity %AUC20 (P. falciparum clone (W2); mean, infected rhesus): 55.0%
- Bioactivity (DHA equi.) AUC(0-inf) (P. falciparum clone (W2); mean, infected rhesus): 476 (346–607) µmole min L^-1
- Bioactivity Cl (P. falciparum clone (W2); mean, infected rhesus): 3.18 (2.25–4.11) L hr^-1 kg ^-1
- Bioactivity Cl (P. falciparum clone (W2); mean, infected rhesus, listed as I.V. AS/Na): 3.18 L hr^-1 kg ^-1
- AUC (ePD) (Plasmodium falciparum; mean (95 % CI)): 636 (524–748) µmol min L^−1
- Cl (ePD) (Plasmodium falciparum): 0.83 (0.70–0.96) L h^−1 kg^−1
- t1/2, metabolite (M) [1]: 31.1 min
- Cl ([1]; iv, 8 mg/kg): 4.38 L hr^-1 kg ^-1
- tissue levels [2]: high levels of AS were found in brain, fat, intestine and serum
- concentration at 1 h (in vivo; Plasma concentration, mean): 0.05 µM
- concentration at 3 h (in vivo; Plasma concentration, mean): 0 nM
- concentration at 6 h (in vivo; Plasma concentration, mean): 0 nM
- AUC(0-t) (in vivo; AUC 0-20): 4.78 µM·h
- AUC(0-t) (in vivo; AUC0–20, parent compound (P)): 4.8 µM·h
- AUC(0-t) (in vivo; AUC0–20, parent drug): 4.8 µM·h
- AUC(0-inf) (in vivo; AUC0–∞, parent compound (P)): 4.8 µM·h
- AUC(0-inf) (in vivo; AUC0–∞, parent drug): 4.8 µM·h
- AUC(0-inf) (in vivo; AUC(0-inf)): 5.2 µM·h
- clearance (in vivo): 78.3 mL/min/kg
- clearance (in vivo; parent): 72.3 mL/min/kg
- Cmax (in vivo; parent compound (P)): 28.2 µM
- Cmax (in vivo; parent drug): 28.2 µM
- half-life (in vivo; t1/2, parent compound (P)): 3.47 min
- half-life (in vivo; t 1/2, z): 4.17 min
